Test results taken from article PMC9598926, “Design and Synthesis of (Z)-5-(Substituted benzylidene)-3-cyclohexyl-2-thioxothiazolidin-4-one Analogues as Anti-Tyrosinase and Antioxidant Compounds: In Vitro and In Silico Insights” (Antioxidants, 2022).

Experiments:
Type in all cases: cell-based, murine
MITF = experiment: Western blot of nuclear MITF in α–MSH/IBMX stimulated B16F10 cells; conditions: 5, 10, 20 µM
Protocol: (§1) 2.15. Extraction of Cytosolic and Nuclear Proteins from Cells
(§2) Western blotting was used to determine tyrosinase and MITF protein levels. Briefly, B16F10 cells were seeded in 60 mm culture dishes in the presence or absence of α–MSH (1 µM) plus IBMX (200 µM) with or without analog 3 (5, 10, and 20 µM for final concentrations) for 24 h, washed twice with ice-cold PBS and centrifuged for 10 min at 12,000× g. Cell pellets were suspended in 10 mM Tris (pH 8.0) containing 0.1% NP-40, 1 mM DTT, 1.5 mM MgCl2, 1 mM PMSF, and protease inhibitors (GenDEPOT, Barker, TX, USA), incubated on ice for 15 min, and centrifuged for 10 min at 12,000× g at 4 °C. Supernatants were used as cytosolic fractions. […] The protein concentrations were determined using a bicinchoninic acid (BCA)™ assay kit (Pierce, Rockford, IL, USA). […]
(§3) Lysed protein samples from cells were boiled for 10 min in sample-loading buffer (0.1% bromophenol blue, 25% glycerol, 60 mM Tris-HCl (pH 6.8), 2% SDS, and 0.5% β-mercaptoethanol) at a volume ratio of 1:4. […] Immunoreactive proteins were detected using the enhanced chemiluminescence (ECL) detection reagent in the SuperSignal® West Pico Chemiluminescent Substrate kit (Advansta, San Jose, CA, USA). Western blot bands were visualized using a Davinch-Chemi imager™ (Davinch-K, Seoul, Korea), and quantification was conducted by densitometric analysis using CS analyzer software ver. […]

B16F10 cells = experiment: Melanin content analysis in α–MSH plus IBMX stimulated B16F10 cells
Protocol: 2.10. Melanin Content Analysis Melanin content assays were performed to determine the effects of analog 3 on cellular melanin formation, as previously described with minor modification. […] Briefly, cultured B16F10 cells were seeded in 6-well culture plates at 1 × 10^4 cells/well and incubated for 12 h under culture conditions to allow them to adhere to well bottoms. […] Cells were then washed twice with PBS and detached from wells by incubation with Trypsin/EDTA. After centrifugation, detached cell pellets were dissolved in 1N–NaOH solution (100 µL), incubated for 1 h at 60 °C, and mixed to solubilize melanin released by cells. The ability of analog 3 to inhibit melanin production was determined by measuring well optical densities (ODs) at 405 nm using a microplate reader (VersaMax®, Molecular Devices, Sunnyvale, CA, USA). Melanin contents were calculated by dividing the ODs of samples by the control OD. Experiments were conducted independently 3 times. […] Thus, B16F10 cells were treated with analog 3 (0, 5, 10, or 20 µM) for 1 h and then stimulated with α–MSH (1 µM) plus IBMX (200 µM) for 72 h. Melanin contents were assessed by measuring optical densities at 405 nm.

tyrosinase = experiment: Western blot of cytosolic tyrosinase in α–MSH/IBMX stimulated B16F10 cells; conditions: 5, 10, 20 µM
Protocol: as §1, §2, §3

[1] = molecular target: T1, B16F10 cellular tyrosinase (Mus musculus, UniProt P11344); experiment: Cellular tyrosinase activity assay in α–MSH plus IBMX stimulated B16F10 cells; conditions: 5, 10, 20 µM, 72 h
T1 construct: B16F10 murine melanoma cells were used as a cellular tyrosinase source; endogenous in cells; host or cells: B16F10 murine melanoma cells (ATCC)
T1 sequence (P11344 19-533): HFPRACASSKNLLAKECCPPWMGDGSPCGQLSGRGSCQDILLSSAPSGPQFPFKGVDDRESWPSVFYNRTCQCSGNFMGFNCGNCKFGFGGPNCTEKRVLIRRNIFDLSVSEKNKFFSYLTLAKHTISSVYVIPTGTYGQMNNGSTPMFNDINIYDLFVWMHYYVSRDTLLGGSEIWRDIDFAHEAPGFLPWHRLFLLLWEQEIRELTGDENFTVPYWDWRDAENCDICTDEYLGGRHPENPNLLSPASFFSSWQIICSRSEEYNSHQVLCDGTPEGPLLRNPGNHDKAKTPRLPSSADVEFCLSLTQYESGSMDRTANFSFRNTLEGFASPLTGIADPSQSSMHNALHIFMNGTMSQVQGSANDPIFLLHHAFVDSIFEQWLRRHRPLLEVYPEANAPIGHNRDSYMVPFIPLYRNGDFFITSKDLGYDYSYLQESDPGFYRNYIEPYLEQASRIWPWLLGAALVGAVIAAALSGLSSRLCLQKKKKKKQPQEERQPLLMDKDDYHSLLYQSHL
Protocol: Cellular Tyrosinase Activity Assay
Briefly, cultured B16F10 cells were seeded in 6-well culture plate at 1 × 10^4 cells/well and incubated for 12 h under cell culture conditions to allow them to adhere to well bottoms. […] Cells were then washed with PBS twice and exposed to a lysis buffer solution (100 µL) comprised of 5 µL of 20% Triton X-100, 5 µL of 2 mM PMSF, and 90 µL of 50 mM phosphate buffer in pH 6.5. Lysates were kept at −80 °C for 30 min, defrosted, and centrifuged at 12,000 rpm for 30 min at 4 °C. Supernatants (80 µL) were mixed with 20 µL of 2 mg/mL of L-dopa in a 96-well plate, and absorbance of each well was measured at 475 nm every 10 min for 1 h at 37 °C using a microplate reader (VersaMax®, Molecular Devices, Sunnyvale, CA, USA). Experiments were performed independently 3 times.
Cellular tyrosinase activities were determined by measuring optical densities at 475 nm.

Compound: O=C1/C(=C/c2ccc(O)cc2O)SC(=S)N1C1CCCCC1 [Analog 3, (Z)-3-Cyclohexyl-5-(2,4-dihydroxybenzylidene)-2-thioxothiazolidin-4-one]
- effect on α–MSH/IBMX-induced increases in MITF levels (nuclear protein) (MITF): significantly and concentration-dependently suppressed
- effect on α–MSH/IBMX-induced melanin contents at 5 µM (B16F10 cells; 5 µM, compared with kojic acid 20 µM): greater effect than kojic acid at 20 µM
- effect on α–MSH/IBMX-induced melanin contents at 20 µM (B16F10 cells; 20 µM, 72 h): to the non-treated control level
- effect on α–MSH/IBMX-induced melanin content increases (B16F10 cells; 5, 10, 20 µM, 72 h): significantly and dose-dependently reduced
- effect on α–MSH/IBMX-induced increase in tyrosinase expression (protein, cytosol) (tyrosinase): significantly and concentration-dependently reduced
- effect on α–MSH plus IBMX induced increase in cellular tyrosinase activity [1]: significantly and dose-dependently reduced
